System: P.yoelii
Assay: In vivo effect on P.yoelii in mice (inhibition of parasitaemia)
Conditions: for inhibition in vivo at 0.5 mg/kg: 0.50 mg/Kg × 7; for inhibition in vivo at 1 mg/kg: 1.0 mg/Kg × 7; for ED50 for naphthoquinone: 5760 min; for inhibition in vivo at 3 mg/kg: 3.0 mg/Kg × 7; for inhibition in vivo at 2.5 mg/kg: 2.5 mg/Kg × 7; for inhibition in vivo at 5 mg/kg: 5.0 mg/Kg × 7
Experimental: The naphthoquinone and the pyridinol were each suspended in 0.25% (w/v) celacol in water by milling for 16-24 hours at 26° C. The suspensions were subsequently serially diluted with 0.25% (w/v) celacol in water. At time 0, 0.1 ml of a suspension of 10^7 P.yoelii-parasitised red blood cells/ml of phosphate buffered saline were injected intravenously into 15-20 g mice through a tail vein. Groups of 5 mice per treatment were dosed orally at times 6, 22, 30, 46, 54, 70 and 78 hours with 0.2 ml of the drug suspension. Tail-blood smears were taken at 96 hours, stained with Giemsa and the percentage of red blood cells infected determined and compared to untreated, infected controls. Percent inhibition was correlated with dose to provide ED50 values for each drug alone. In subsequent experiments dilutions of the two drugs, alone and in combination were used, and the percentage inhibition of parasitaemia and ED50 values (of each drug at fixed concentrations of the other) were determined. The results are shown respectively in Tables V and VI. A number of combinations of clopidol (4-pyridinol) and naphthoquinones were assayed and compared with each drug alone for their antimalarial effect against P.yoelii in vivo by the method of Example 4.

[1] = Plasmodium yoelii, po, 96 h, naphthoquinone alone
[2] = naphthoquinone 0.50 + clopidol 1.4 mg/Kg × 7
[3] = naphthoquinone 0.50 + clopidol 4.3 mg/Kg × 7
[4] = naphthoquinone 1.0 + clopidol 1.4 mg/Kg × 7
[5] = naphthoquinone 1.0 + clopidol 4.3 mg/Kg × 7
[6] = naphthoquinone 2.5 + clopidol 1.4 mg/Kg × 7
[7] = naphthoquinone 2.5 + clopidol 4.3 mg/Kg × 7
[8] = naphthoquinone 5.0 + clopidol 1.4 mg/Kg × 7
[9] = naphthoquinone 5.0 + clopidol 4.3 mg/Kg × 7

In the case of `O=C1C(O)=C(C2CCC(c3ccc(Cl)cc3)CC2)C(=O)c2ccccc21` (stereo not shown), the inhibition in vivo at 0.01 mg/kg (Plasmodium yoelii, po, 96 h, naphthoquinone alone, 0.010 mg/Kg × 7) is reported as 5%, the inhibition in vivo at 0.02 mg/kg (Plasmodium yoelii, po, 96 h, naphthoquinone alone, 0.020 mg/Kg × 7) is reported as 12% and the “% inhibition of parasitaemia (combination)” value (from here on “% inhibition of parasitaemia”) (naphthoquinone 0.010 + clopidol 1.4 mg/Kg × 7) is reported as 29%. For the same compound, the “% inhibition of parasitaemia” value (naphthoquinone 0.010 + clopidol 4.3 mg/Kg × 7) was 68%, the “% inhibition of parasitaemia” value (naphthoquinone 0.020 + clopidol 1.4 mg/Kg × 7) was 55% and the “% inhibition of parasitaemia” value (naphthoquinone 0.020 + clopidol 4.3 mg/Kg × 7) was 90%.
`CCC1(CC)CCC(C2=C(O)C(=O)c3ccccc3C2=O)CC1` was tested, and the inhibition in vivo at 0.5 mg/kg [1] was 5%, the inhibition in vivo at 1 mg/kg [1] was 4% and the “% inhibition of parasitaemia” value [2] was 14%. For the same compound, the “% inhibition of parasitaemia” value [3] was 54%, the “% inhibition of parasitaemia” value [4] was 68% and the “% inhibition of parasitaemia” value [5] was 75%.
`CC(C)(C)C1CCC(CC2=C(O)C(=O)c3ccccc3C2=O)CC1` (stereo not shown) was tested, and the inhibition in vivo at 0.5 mg/kg [1] was 10%, the inhibition in vivo at 1 mg/kg [1] was 19% and the “% inhibition of parasitaemia” value [2] was 17%. The “% inhibition of parasitaemia” value [3] was 61%, the “% inhibition of parasitaemia” value [4] was 52% and the “% inhibition of parasitaemia” value [5] was 93%.
With `O=C1C(O)=C(C2CCC(c3ccccc3)CC2)C(=O)c2ccccc21` (stereo not shown) the inhibition in vivo at 0.04 mg/kg (Plasmodium yoelii, po, 96 h, naphthoquinone alone, 0.040 mg/Kg × 7) was 0%, the inhibition in vivo at 0.05 mg/kg (Plasmodium yoelii, po, 96 h, naphthoquinone alone, 0.050 mg/Kg × 7) was 0% and the “% inhibition of parasitaemia” value (naphthoquinone 0.040 + clopidol 1.9 mg/Kg × 7) was 23%. The “% inhibition of parasitaemia” value (naphthoquinone 0.040 + clopidol 3.75 mg/Kg × 7) was 39%, the “% inhibition of parasitaemia” value (naphthoquinone 0.050 + clopidol 1.9 mg/Kg × 7) was 34% and the “% inhibition of parasitaemia” value (naphthoquinone 0.050 + clopidol 3.75 mg/Kg × 7) was 73%.
For `O=C1C(O)=C(CCCCCCCCC2CCCCC2)C(=O)c2ccccc21`, the inhibition in vivo at 0.5 mg/kg [1] was 7%, the inhibition in vivo at 1 mg/kg [1] was 19% and the “% inhibition of parasitaemia” value (naphthoquinone 0.50 + clopidol 2.5 mg/Kg × 7) was 10%. For the same compound, the “% inhibition of parasitaemia” value (naphthoquinone 0.50 + clopidol 5.0 mg/Kg × 7) was 45%, the “% inhibition of parasitaemia” value (naphthoquinone 1.0 + clopidol 2.5 mg/Kg × 7) was 31% and the “% inhibition of parasitaemia” value (naphthoquinone 1.0 + clopidol 5.0 mg/Kg × 7) was 55%.
Compound `O=C1C(O)=C(C2CCC(C3CCCCC3)CC2)C(=O)c2ccccc21` (stereo not shown) [2-(4-cyclohexylcyclohexyl)-3-hydroxy-1,4-naphthoquinone] has an inhibition in vivo at 0.019 mg/kg (Plasmodium yoelii, po, 96 h, naphthoquinone alone, 0.019 mg/Kg/dose, 7 doses) of 13%, an inhibition in vivo at 0.037 mg/kg (Plasmodium yoelii, po, 96 h, naphthoquinone alone, 0.037 mg/Kg/dose, 7 doses) of 28% and an inhibition in vivo at 0.075 mg/kg (Plasmodium yoelii, po, 96 h, naphthoquinone alone, 0.075 mg/Kg/dose, 7 doses) of 17%. For the same compound, the inhibition in vivo at 0.15 mg/kg (Plasmodium yoelii, po, 96 h, naphthoquinone alone, 0.15 mg/Kg/dose, 7 doses) was 16%, the inhibition in vivo at 0.3 mg/kg (Plasmodium yoelii, po, 96 h, naphthoquinone alone, 0.30 mg/Kg/dose, 7 doses) was 74% and the inhibition in vivo at 0.6 mg/kg (Plasmodium yoelii, po, 96 h, naphthoquinone alone, 0.60 mg/Kg/dose, 7 doses) was 99%. For the same compound, the ED50 for naphthoquinone (fixed clopidol 0.000 mg/kg/dose (alone)) was 0.224 (0.224 to 0.208) mg/Kg/dose, the ED50 for naphthoquinone (fixed clopidol 0.94 mg/kg/dose) was 0.109 (0.125 to 0.0909) mg/Kg/dose and the ED50 for naphthoquinone (fixed clopidol 1.9 mg/kg/dose) was 0.0762 (0.0975 to 0.0599) mg/Kg/dose. The ED50 for naphthoquinone (fixed clopidol 3.75 mg/kg/dose) was 0.0519 (0.0599 to 0.0450) mg/Kg/dose, the ED50 for naphthoquinone (fixed clopidol 7.5 mg/kg/dose) was 0.0219 (0.0274 to 0.0151) mg/Kg/dose and the ED50 for naphthoquinone (fixed clopidol 15. mg/kg/dose) was 0.0197 (0.0242 to 0.0121) mg/Kg/dose. For the same compound, the “% inhibition of parasitaemia” value (naphthoquinone 0.019 + clopidol 0.94 mg/Kg/dose) was 16%, the “% inhibition of parasitaemia” value (naphthoquinone 0.019 + clopidol 1.9 mg/Kg/dose) was 23% and the “% inhibition of parasitaemia” value (naphthoquinone 0.019 + clopidol 3.7 mg/Kg/dose) was 11%. For the same compound, the “% inhibition of parasitaemia” value (naphthoquinone 0.019 + clopidol 7.5 mg/Kg/dose) was 42%, the “% inhibition of parasitaemia” value (naphthoquinone 0.019 + clopidol 15 mg/Kg/dose) was 48% and the “% inhibition of parasitaemia” value (naphthoquinone 0.037 + clopidol 0.94 mg/Kg/dose) was 20%. For the same compound, the “% inhibition of parasitaemia” value (naphthoquinone 0.037 + clopidol 1.9 mg/Kg/dose) was 23%, the “% inhibition of parasitaemia” value (naphthoquinone 0.037 + clopidol 3.7 mg/Kg/dose) was 32% and the “% inhibition of parasitaemia” value (naphthoquinone 0.037 + clopidol 7.5 mg/Kg/dose) was 73%. For the same compound, the “% inhibition of parasitaemia” value (naphthoquinone 0.037 + clopidol 15 mg/Kg/dose) was 77%, the “% inhibition of parasitaemia” value (naphthoquinone 0.075 + clopidol 0.94 mg/Kg/dose) was 35% and the “% inhibition of parasitaemia” value (naphthoquinone 0.075 + clopidol 1.9 mg/Kg/dose) was 45%. For the same compound, the “% inhibition of parasitaemia” value (naphthoquinone 0.075 + clopidol 3.7 mg/Kg/dose) was 69%, the “% inhibition of parasitaemia” value (naphthoquinone 0.075 + clopidol 7.5 mg/Kg/dose) was 86% and the “% inhibition of parasitaemia” value (naphthoquinone 0.15 + clopidol 0.94 mg/Kg/dose) was 62%. For the same compound, the “% inhibition of parasitaemia” value (naphthoquinone 0.15 + clopidol 1.9 mg/Kg/dose) was 80%, the “% inhibition of parasitaemia” value (naphthoquinone 0.15 + clopidol 3.7 mg/Kg/dose) was 92% and the “% inhibition of parasitaemia” value (naphthoquinone 0.30 + clopidol 0.94 mg/Kg/dose) was 96%. For the same compound, the “% inhibition of parasitaemia” value (naphthoquinone 0.30 + clopidol 1.9 mg/Kg/dose) was 98%.
`O=C1C(O)=C(C2CCC(C3CCCCC3)CC2)C(=O)c2ccccc21` (stereo not shown) [drawing 17, 2-(4-cyclohexylcyclohexyl)-3-hydroxy-1,4-naphthoquinone] was tested, and the inhibition in vivo at 0.075 mg/kg (Plasmodium yoelii, po, 96 h, naphthoquinone alone, 0.075 mg/Kg × 7) was 17%, the inhibition in vivo at 0.15 mg/kg (Plasmodium yoelii, po, 96 h, naphthoquinone alone, 0.15 mg/Kg × 7) was 16% and the “% inhibition of parasitaemia” value (naphthoquinone 0.075 + clopidol 1.9 mg/Kg × 7) was 45%. The “% inhibition of parasitaemia” value (naphthoquinone 0.075 + clopidol 3.75 mg/Kg × 7) was 69%, the “% inhibition of parasitaemia” value (naphthoquinone 0.15 + clopidol 1.9 mg/Kg × 7) was 80% and the “% inhibition of parasitaemia” value (naphthoquinone 0.15 + clopidol 3.75 mg/Kg × 7) was 92%.
`CC(C)(C)OC1CCC(C2=C(O)C(=O)c3ccccc3C2=O)CC1` (stereo not shown) was tested, and the inhibition in vivo at 0.13 mg/kg (Plasmodium yoelii, po, 96 h, naphthoquinone alone, 0.13 mg/Kg × 7) was 1%, the inhibition in vivo at 0.25 mg/kg (Plasmodium yoelii, po, 96 h, naphthoquinone alone, 0.25 mg/Kg × 7) was 5% and the “% inhibition of parasitaemia” value (naphthoquinone 0.13 + clopidol 4.3 mg/Kg × 7) was 84%. The “% inhibition of parasitaemia” value (naphthoquinone 0.13 + clopidol 13 mg/Kg × 7) was 31%, the “% inhibition of parasitaemia” value (naphthoquinone 0.25 + clopidol 4.3 mg/Kg × 7) was 97% and the “% inhibition of parasitaemia” value (naphthoquinone 0.25 + clopidol 13 mg/Kg × 7) was 80%.
For `O=C1C(O)=C(C2CCCCC2)C(=O)c2ccccc21`, the inhibition in vivo at 1.5 mg/kg (Plasmodium yoelii, po, 96 h, naphthoquinone alone, 1.5 mg/Kg × 7) was 1%, the inhibition in vivo at 3 mg/kg [1] was 15% and the “% inhibition of parasitaemia” value (naphthoquinone 1.5 + clopidol 1.9 mg/Kg × 7) was 47%. The “% inhibition of parasitaemia” value (naphthoquinone 1.5 + clopidol 3.75 mg/Kg × 7) was 76%, the “% inhibition of parasitaemia” value (naphthoquinone 3.0 + clopidol 1.9 mg/Kg × 7) was 64% and the “% inhibition of parasitaemia” value (naphthoquinone 3.0 + clopidol 3.75 mg/Kg × 7) was 97%.
With `CCCCCCCCCC1=C(O)C(=O)c2ccccc2C1=O` [(CH2)8 Me, 2-n-nonyl-3-hydroxy-1,4-naphthoquinone] the inhibition in vivo at 3 mg/kg [1] was 3%, the inhibition in vivo at 9 mg/kg (Plasmodium yoelii, po, 96 h, naphthoquinone alone, 9.0 mg/Kg × 7) was 69% and the “% inhibition of parasitaemia” value (naphthoquinone 3.0 + clopidol 1.4 mg/Kg × 7) was 42%. The “% inhibition of parasitaemia” value (naphthoquinone 3.0 + clopidol 4.3 mg/Kg × 7) was 76%, the “% inhibition of parasitaemia” value (naphthoquinone 9.0 + clopidol 1.4 mg/Kg × 7) was 88% and the “% inhibition of parasitaemia” value (naphthoquinone 9.0 + clopidol 4.3 mg/Kg × 7) was 99%.
In the case of `CC(C)(C)C1CCC(C2=C(O)C(=O)c3ccccc3C2=O)CC1` (stereo not shown) [drawing 25], the inhibition in vivo at 0.6 mg/kg (Plasmodium yoelii, po, 96 h, naphthoquinone alone, 0.6 mg/Kg × 7) is reported as 24%, the inhibition in vivo at 0.9 mg/kg (Plasmodium yoelii, po, 96 h, naphthoquinone alone, 0.9 mg/Kg × 7) is reported as 35% and the “% inhibition of parasitaemia” value (naphthoquinone 0.6 + clopidol 2.5 mg/Kg × 7) is reported as 74%. For the same compound, the “% inhibition of parasitaemia” value (naphthoquinone 0.6 + clopidol 5.0 mg/Kg × 7) was 94%, the “% inhibition of parasitaemia” value (naphthoquinone 0.9 + clopidol 2.5 mg/Kg × 7) was 96% and the “% inhibition of parasitaemia” value (naphthoquinone 0.9 + clopidol 5.0 mg/Kg × 7) was 97%.
`CC1(C)CCC(C2=C(O)C(=O)c3ccccc3C2=O)CC1` was tested, and the inhibition in vivo at 2.5 mg/kg [1] was 0%, the inhibition in vivo at 5 mg/kg [1] was 0% and the “% inhibition of parasitaemia” value [6] was 22%. The “% inhibition of parasitaemia” value [7] was 45%, the “% inhibition of parasitaemia” value [8] was 46% and the “% inhibition of parasitaemia” value [9] was 73%.
In the case of `CC(=O)OC1=C(C2CCCCC2)C(=O)c2ccccc2C1=O`, the inhibition in vivo at 2.5 mg/kg [1] is reported as 2%, the inhibition in vivo at 5 mg/kg [1] is reported as 3% and the “% inhibition of parasitaemia” value [6] is reported as 3%. For the same compound, the “% inhibition of parasitaemia” value [7] was 50%, the “% inhibition of parasitaemia” value [8] was 22% and the “% inhibition of parasitaemia” value [9] was 86%.

Source: US5053418A, “Antiprotozoal agents” (Burroughs Wellcome Co., priority 1983, dated 1991)
